ChEMBL document CHEMBL5604063, “ASAP - DENV-2 NS2B-NS3 protease fluorescence dose response” (2024)
Values joined by “and” are separate entries in the source; they are usually repeats but may differ in a detail not shown here. Equal entries are not always repeated.

Experiments:
[1] = target: T1, Genome polyprotein (dengue virus type 2, UniProt P29990); format: functional, Thailand/16681/1984
[2] = target: T1, Genome polyprotein; format: functional, Thailand/16681/1984; remark: listed apart in the source

T1 sequence (P29990 1346-1475 limits assumed): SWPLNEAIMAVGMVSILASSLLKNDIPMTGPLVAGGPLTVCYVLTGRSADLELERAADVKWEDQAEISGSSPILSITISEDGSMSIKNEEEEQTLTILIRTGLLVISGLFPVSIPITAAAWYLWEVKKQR
T1 sequence (P29990 1476-2093 limits assumed): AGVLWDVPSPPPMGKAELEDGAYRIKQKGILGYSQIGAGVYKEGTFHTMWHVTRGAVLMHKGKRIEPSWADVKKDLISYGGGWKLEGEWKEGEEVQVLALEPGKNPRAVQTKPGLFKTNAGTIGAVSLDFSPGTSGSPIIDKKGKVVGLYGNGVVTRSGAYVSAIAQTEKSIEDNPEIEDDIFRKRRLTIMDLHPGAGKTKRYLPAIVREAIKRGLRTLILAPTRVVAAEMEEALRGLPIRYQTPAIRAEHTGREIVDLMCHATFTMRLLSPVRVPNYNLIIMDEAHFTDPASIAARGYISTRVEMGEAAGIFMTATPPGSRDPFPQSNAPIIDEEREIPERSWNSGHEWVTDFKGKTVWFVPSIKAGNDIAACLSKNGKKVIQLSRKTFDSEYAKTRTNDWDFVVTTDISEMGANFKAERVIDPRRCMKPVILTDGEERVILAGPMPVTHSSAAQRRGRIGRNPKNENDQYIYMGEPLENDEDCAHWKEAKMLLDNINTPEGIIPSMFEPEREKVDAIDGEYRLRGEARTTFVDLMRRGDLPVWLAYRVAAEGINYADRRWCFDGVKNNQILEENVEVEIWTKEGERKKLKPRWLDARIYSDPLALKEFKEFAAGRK

SMILES | IC50 [1] | IC50 [2]
O=C(Nc1cc(Cl)cc([C@H](C#CCO)Nc2cccc(-c3nn[nH]n3)c2)c1)OCc1ccccc1 | 7.98 µM and 7.07 µM | 13.6 µM and 12.9 µM
O=C(Nc1cc(Cl)cc(C(=O)NCC[C@H]2C[C@@H]2C(=O)O)c1)OCc1ccccc1 | > 100 µM | > 99.5 µM
Cc1c(C(=O)Nc2cc(CCCN)ccc2F)cc(C2CC2)n1C | > 100 µM | > 99.5 µM
NCc1cccc(N[C@H](C#CCO)c2cc(Cl)cc(NC(=O)OCc3ccccc3)c2)c1 | > 100 µM | 93.8 µM
Clc1cc(/C=C/c2cccc(-c3nn[nH]n3)c2)c2cn[nH]c2c1 | > 100 µM | > 99.5 µM
COc1c(C(=O)N(C)C)cc(Cl)cc1S(=O)(=O)Nc1cccc(-c2nnn[nH]2)c1 | > 100 µM | > 99.5 µM
N#C[C@H](Nc1cccc(-c2nn[nH]n2)c1)c1cc(Cl)cc(NC(=O)OCc2ccccc2)c1 | 8.74 µM and 6.62 µM and 11.4 µM and 8.37 µM | 10.5 µM and 10.4 µM and 13.7 µM and 9.79 µM
O=C(Nc1ccc2c(c1)CNC2)c1cc(Cl)cc2[nH]ncc12 | > 100 µM | 72.5 µM and 58.7 µM and 89.7 µM
CCCc1sc(C(=O)Nc2cccc(-c3nnn[nH]3)c2)cc1CC | 19 µM and 20.6 µM | 45.8 µM
C=CC[C@H](Nc1cccc(-c2nn[nH]n2)c1)c1cc(Cl)cc2[nH]ncc12 | 53.4 µM and 45 µM | 92 µM
Cc1c(C(=O)Nc2ccc([C@@H](C)N)cc2)cc(C2CC2)n1C | > 100 µM | > 99.5 µM
CNC(=O)[C@H](Nc1cccc(-c2nn[nH]n2)c1)c1cc(Cl)cc(NC(=O)OCc2ccccc2)c1 | 28.2 µM and 21.1 µM | 48.6 µM
NCc1ccc2c(c1)[C@H]1OCCC[C@H]1[C@H](c1cc(Cl)cc(NC(=O)OCc3ccccc3)c1)N2 | 33.9 µM and 45.8 µM | 17.6 µM and 15.9 µM
CC[C@H](Cc1nnn[nH]1)c1ccc(NC(=O)c2cc(Cl)cc(-n3cccc3)c2)cc1 | 14.7 µM and 20.9 µM | 26.4 µM
O=C(O)CCCc1ccc(NC(=O)c2cc(Cl)cc(NC(=O)OCc3ccccc3)c2)cc1 | 27.3 µM and 21.1 µM | 43.3 µM
O=S(=O)(Nc1cccc(-c2nnn[nH]2)c1)c1cc(Cl)cc(-c2ccccc2)c1 | 16.4 µM and 28.4 µM | 35.8 µM
O=C(Nc1cc(Cl)cc(C(=O)Nc2cncc(C(=O)O)c2)c1)OCc1ccccc1 | 32.1 µM and 27.5 µM | 70 µM
NCCc1ccc([C@H]2C[C@@H]2c2cc(Cl)cc(NC(=O)OCc3ccccc3)c2)cc1 | 58.9 µM and 31.6 µM | 7.22 µM and 8.69 µM
CNC(=O)[C@H](Nc1cccc(-c2nn[nH]n2)c1)c1cc(Cl)cc2[nH]ncc12 | > 100 µM | > 99.5 µM
NCc1ccc2nc(-c3cc(Cl)cc(NC(=O)OCc4ccccc4)c3)c(CCCO)cc2c1 | > 100 µM | 89.3 µM
Clc1cc(CCc2cccc(-c3nn[nH]n3)c2)c2cn[nH]c2c1 | 99.1 µM | > 99.5 µM
Nc1cccc(NC(=O)c2cc(Cl)cc(NC(=O)OCc3ccccc3)c2)c1 | > 100 µM | > 99.5 µM
O=C(Nc1cc(Cl)cc(-c2ccc3[nH]c(C(=O)O)cc3c2)c1)OCc1ccccc1 | 5.48 µM and 4.93 µM | 6.65 µM and 5.47 µM
COC(=O)c1cc(Cl)cc([C@@H]2CN(Cc3ccccc3)C[C@H]2c2cccc(CN)c2)c1 | > 100 µM | > 99.5 µM
O=S(=O)(Nc1cccc(-c2nnn[nH]2)c1)c1cc(Cl)cc2c1OCC2 | > 100 µM | > 99.5 µM
O=C(Nc1ccc(-c2nnn[nH]2)cc1)c1cc(Cl)cc(C2CC2)c1 | 37.1 µM and 36 µM | 69.5 µM

SMILES | IC50 [1] | IC50 [2]
CCNC(=O)Nc1cc(Cl)cc(C(=O)Nc2cc(C)cc(CN)c2)c1 | > 100 µM | > 99.5 µM
O=C(Nc1cc(Cl)cc(S(=O)(=O)Nc2cccc(-c3nn[nH]n3)c2)c1)OCc1ccccc1 | 11.5 µM and 8.87 µM | 22.5 µM
NCc1cc(C(=O)O)cc([C@@H]2C[C@H]2c2cc(Cl)cc(NC(=O)OCc3ccccc3)c2)c1 | > 100 µM | > 99.5 µM
CCc1nc(C)c(C(=O)Nc2cccc(-c3nnn[nH]3)c2)s1 | > 100 µM | > 99.5 µM
C[C@H](C(=O)O)c1cccc(NC(=O)c2cc(Cl)cc(NC(=O)OCc3ccccc3)c2)c1 | 24.7 µM and 27.2 µM | 58.7 µM
Cc1onc(C(=O)Nc2cccc(CN)c2)c1CN1CCCC1 | > 100 µM | > 99.5 µM
C=CC[C@H](Nc1cc(Cl)cc(NC(=O)OCc2ccccc2)c1)c1cccc(-c2nn[nH]n2)c1 | 6.73 µM and 4.97 µM and 5.55 µM and 5.77 µM and 4.21 µM and 4.15 µM | 7.41 µM and 7.43 µM and 7.49 µM and 7.65 µM
O=C(Nc1cc(Cl)cc([C@H]2C[C@@H]2c2cccc(C3CCNCC3)c2)c1)OCc1ccccc1 | 54.1 µM and 34.5 µM | 6.78 µM and 6.9 µM
O=S(=O)(Nc1cccc(-c2nnn[nH]2)c1)c1cc(Cl)cc(C(F)(F)F)c1 | > 100 µM | > 99.5 µM
CCNC(=O)Nc1cc(Cl)cc(C(=O)Nc2ccc3c(c2)CNCCO3)c1 | > 100 µM | > 99.5 µM
C=CC[C@H](Nc1cc(CN)ccn1)c1cc(Cl)cc(NC(=O)OCc2ccccc2)c1 | > 100 µM | > 99.5 µM
CNC(=O)[C@H](Nc1cccc(C(=O)O)c1)c1cc(Cl)cc2[nH]ncc12 | > 100 µM | > 99.5 µM
CC[C@H](Cc1nn[nH]n1)c1ccc(N[C@H](C(=O)NC)c2cc(Cl)cc(NC(=O)OCc3ccccc3)c2)cc1 | 15.4 µM and 25.1 µM | 29.2 µM
O=C(Nc1cc(Cl)cc([C@H](C#CCO)Nc2ccc(-c3nn[nH]n3)cc2)c1)OCc1ccccc1 | 8.13 µM and 6.72 µM | 12.2 µM
O=C(Nc1cc(Cl)cc(C(=O)NC2(c3nn[nH]n3)CCCC2)c1)OCc1ccccc1 | > 100 µM | > 99.5 µM
C#C[C@H](Nc1cccc(-c2nn[nH]n2)c1)c1cc(Cl)cc(NC(=O)OCc2ccccc2)c1 | 9.28 µM and 8.35 µM | 10.6 µM
Cc1c(C(=O)Nc2cc(F)cc(CN)c2)cc(C2CC2)n1C | > 100 µM | > 99.5 µM
Cc1c(C(=O)Nc2cccc(CN)c2)cc(C2CCC2)n1C | > 100 µM | > 99.5 µM
Cc1c(C(=O)Nc2ccc(CN)cc2)cc(C2CC2)n1C | > 100 µM | > 99.5 µM
CN1C[C@H](c2cccc(CN)c2)[C@@H](c2cc(Cl)cc(NC(=O)OCc3ccccc3)c2)C1 | > 100 µM | > 99.5 µM
O=C(Nc1cc(Cl)cc(C(=O)N[C@H]2CCCC[C@@H]2C(=O)O)c1)OCc1ccccc1 | > 100 µM | > 99.5 µM
Cc1c(C(=O)Nc2cc(CN)ccc2F)cc(C2CC2)n1C | > 100 µM | > 99.5 µM
CNC(=O)[C@H](Nc1cc(Cl)cc(NC(=O)OCc2ccccc2)c1)c1cccc(-c2nn[nH]n2)c1 | 22.2 µM and 18 µM | 45.9 µM and 44 µM
NCc1cccc([C@H](CCCO)Nc2cc(Cl)cc(NC(=O)OCc3ccccc3)c2)c1 | > 100 µM | 85.8 µM
O=C(Nc1cc(Cl)cc([C@H]2C[C@@H]2c2ccc3c(c2)CNC3)c1)OCc1ccccc1 | > 100 µM | > 99.5 µM
CC[C@H](Cc1nnn[nH]1)c1ccc(NC(=O)[C@H]2[C@H]3CCCCC[C@H]3[C@H]2NC(=O)OCc2ccccc2)cc1 | 13 µM and 16.4 µM | 22.9 µM

SMILES | IC50 [1] | IC50 [2]
CCNC(=O)Nc1cc(Cl)cc(C(=O)Nc2cc(CCCN)ccc2F)c1 | > 100 µM | > 99.5 µM
O=C(Nc1cc(Cl)cc(C(=O)Nc2cccc(C3(C(=O)O)CCC3)c2)c1)OCc1ccccc1 | 12.5 µM and 12.8 µM | 24.6 µM
O=C(Nc1cc(Cl)cc(C(=O)Nc2cc(-c3nnn[nH]3)ccc2F)c1)OCc1ccccc1 | 11 µM and 7.48 µM | 15.6 µM
CCc1cc(C(=O)Nc2cccc(-n3nn[nH]c3=O)c2)sc1-c1ccc(Cl)cc1 | 10.5 µM and 12.2 µM | 11.3 µM and 12.9 µM
COC(=O)c1cc(CN)cc([C@@H]2C[C@H]2c2cc(Cl)cc(NC(=O)OCc3ccccc3)c2)c1 | > 100 µM | > 99.5 µM
N#C[C@H](Nc1ccc(-c2nn[nH]n2)cc1)c1cc(Cl)cc(NC(=O)OCc2ccccc2)c1 | 7.23 µM and 13 µM | 10.7 µM
Cc1ccc(-c2nnn[nH]2)cc1NC(=O)c1cc(Cl)cc(NC(=O)OCc2ccccc2)c1 | 9.21 µM and 13.1 µM | 18.4 µM
NCc1ccc([C@H]2C[C@@H]2c2cc(Cl)cc(NC(=O)OCc3ccccc3)c2)cc1 | > 100 µM | 9.84 µM and 11.1 µM
CCNC(=O)Nc1cc(Cl)cc(C(=O)Nc2cccc(-n3nn[nH]c3=O)c2)c1 | > 100 µM | > 99.5 µM
O=C(O)CCCc1cccc(NC(=O)c2cc(Cl)cc(NC(=O)OCc3ccccc3)c2)c1 | 23.7 µM and 19.7 µM | 37.2 µM
C=CC[C@H](Nc1cccc(-c2nn[nH]n2)c1)c1cc(Cl)cc(NC(=O)OCc2ccccc2)c1 | 6.22 µM and 4.97 µM | 6.97 µM
O=C(Nc1cc(Cl)cc(C(=O)N[C@H](c2nn[nH]n2)C2CCNCC2)c1)OCc1ccccc1 | > 100 µM | > 99.5 µM
O=C(Nc1cc(Cl)cc(/C=C/c2cccc(-n3nn[nH]c3=O)c2)c1)OCc1ccccc1 | 11.5 µM and 8.65 µM | 8.63 µM and 8.5 µM
O=C(Nc1cc(Cl)cc(S(=O)(=O)Nc2cccc(-n3nn[nH]c3=O)c2)c1)OCc1ccccc1 | 16.1 µM and 14.1 µM | 34.3 µM
CNC(=O)[C@H](Nc1cc(Cl)cc(NC(=O)OCc2ccccc2)c1)c1cccc(CN)c1 | > 100 µM | > 99.5 µM
N#C[C@H](Nc1cccc(C(=O)O)c1)c1cc(Cl)cc2[nH]ncc12 | > 100 µM | > 99.5 µM
O=C(O)CCc1cccc(NC(=O)c2cc(Cl)cc(NC(=O)OCc3ccccc3)c2)c1 | 16.4 µM and 19.7 µM | 48.4 µM
O=C(Nc1cc(Cl)cc(C(=O)Nc2ccc3c(c2)C(=O)NC3)c1)OCc1ccccc1 | > 100 µM | > 99.5 µM
N[C@H]1CCc2cc(NC(=O)c3cc(Cl)cc(NC(=O)OCc4ccccc4)c3)ccc21 | > 100 µM | 44.7 µM
COC(=O)c1cc(Cl)cc(S(=O)(=O)Nc2cccc(-c3nnn[nH]3)c2)c1F | > 100 µM | > 99.5 µM
N#C[C@H](Nc1cc(Cl)cc(NC(=O)OCc2ccccc2)c1)c1ccc(-c2nn[nH]n2)cc1 | 6.86 µM and 5.66 µM | 9.45 µM
CNC(=O)C[C@H](Nc1cccc(F)n1)c1cc(Cl)cc(Br)c1 | > 100 µM | > 99.5 µM
COc1c(C(N)=O)cc(Cl)cc1S(=O)(=O)Nc1cccc(-c2nnn[nH]2)c1 | > 100 µM | > 99.5 µM
O=C(Nc1cc(Cl)cc(C(=O)Nc2ccc([C@@H]3C[C@H]3C(=O)O)cc2)c1)OCc1ccccc1 | 9.55 µM and 9.43 µM | 19.5 µM
CCc1cc(C(=O)Nc2cccc(-c3nnn[nH]3)c2)nn1-c1ccccc1 | > 100 µM | > 99.5 µM
